According to ChEMBL document CHEMBL1138714, “Isosteric N-arylpiperazine replacements in a series of dihydropyridine NPY1 receptor antagonists” (Bioorg Med Chem Lett, 2004):
Values belong to the compound of their own block, whether it stands above or below them.

What was measured:
[1] = target: T1, Neuropeptide Y receptor type 1 (Homo sapiens, UniProt P25929); assay: Inhibition of binding of [125I]PYY to membranes of SK-N-MC cells expressing the human Y1 receptors; type: cell membranes
T1 sequence (P25929 whole entry): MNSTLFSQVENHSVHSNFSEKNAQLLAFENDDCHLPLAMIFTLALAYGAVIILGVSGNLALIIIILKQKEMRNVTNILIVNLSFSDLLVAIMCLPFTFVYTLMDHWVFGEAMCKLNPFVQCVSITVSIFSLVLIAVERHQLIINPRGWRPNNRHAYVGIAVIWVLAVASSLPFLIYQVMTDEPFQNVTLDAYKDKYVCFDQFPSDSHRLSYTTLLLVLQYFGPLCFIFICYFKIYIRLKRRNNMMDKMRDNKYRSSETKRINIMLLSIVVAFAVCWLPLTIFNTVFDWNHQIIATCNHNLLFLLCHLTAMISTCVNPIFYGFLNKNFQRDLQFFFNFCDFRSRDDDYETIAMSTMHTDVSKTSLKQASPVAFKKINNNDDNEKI

[2] = Tested for inhibition of the forskolin-stimulated cAMP production; type: functional
[3] = target: T1, Neuropeptide Y receptor type 1; assay: Antagonist activity towards Neuropeptide Y receptor type 1; type: functional

Structure (SMILES): COC(=O)C1=C(C)N=C(C)/C(=C(/O)OC)C1c1cccc(NC(=O)NCCCN2CCN(c3ccccc3OC)CC2)c1 (stereo unspecified)
IC50 [1]: 12 nM

Structure (SMILES): COC(=O)C1=C(C)N=C(C)/C(=C(/O)OC)C1c1cccc(N/C(=N/CCCN2CCN(c3cccc(OC)c3)CC2)NC#N)c1 (stereo unspecified)
IC50 [1]: 39 nM

Structure (SMILES): COC(=O)C1=C(C)N=C(C)/C(=C(/O)OC)C1c1cccc(NC(=O)NCCNC2CCN(c3ccccc3SC)CC2)c1 (stereo unspecified)
IC50 [1]: 5 nM

Structure (SMILES): COC(=O)C1=C(C)N=C(C)/C(=C(/O)OC)C1c1cccc(NC(=O)NCCNC2CCN(c3ccccc3C)CC2)c1 (stereo unspecified)
IC50 [1]: 4 nM

Structure (SMILES): COC(=O)C1=C(C)N=C(C)/C(=C(/O)OC)C1c1cccc(NC(=O)NCCNC2CCN(c3ccccc3[N+](=O)[O-])CC2)c1 (stereo unspecified)
IC50 [1]: 2 nM

Structure (SMILES): COC(=O)C1=C(C)N=C(C)/C(=C(/O)OC)C1c1cccc(NC(=O)NCCNC2CCN(c3ccccc3C(F)(F)F)CC2)c1 (stereo unspecified)
IC50 [1]: 31 nM

Structure (SMILES): COC(=O)C1=C(C)N=C(C)/C(=C(/O)OC)C1c1cccc(NC(=O)NCCNC2CCN(c3ccccc3OC)CC2)c1 (stereo unspecified)
Kb [2]: 20 nM
Ki [3]: 1.9 nM
IC50 [1]: 2 nM

Structure (SMILES): COC(=O)C1=C(C)N=C(C)/C(=C(/O)OC)C1c1cccc(NC(=O)NCCNC2CCN(c3ccccc3)CC2)c1 (stereo unspecified)
IC50 [1]: 2 nM

Structure (SMILES): COC(=O)C1=C(C)N=C(C)/C(=C(/O)OC)C1c1cccc(NC(=O)NCCNC2CCN(c3ccccc3OC(F)(F)F)CC2)c1 (stereo unspecified)
IC50 [1]: 25 nM

Structure (SMILES): COC(=O)C1=C(C)N=C(C)/C(=C(/O)OC)C1c1cccc(NC(=O)NCCNC2CCN(c3cccc(Cl)c3)CC2)c1 (stereo unspecified)
IC50 [1]: 8 nM

Now from value to compound, other results behind:

IC50 [1]: 5 nM
Structure (SMILES): COC(=O)C1=C(C)N=C(C)/C(=C(/O)OC)C1c1cccc(N/C(=N/CCNC2CCN(c3ccccc3O)CC2)NC#N)c1 (stereo unspecified)

IC50 [1]: 28 nM
Structure (SMILES): COC(=O)C1=C(C)N=C(C)/C(=C(/O)OC)C1c1cccc(N/C(=N/CCNC2CCN(c3ccccc3OC(F)(F)F)CC2)NC#N)c1 (stereo unspecified)

Ki [3]: 3.6 nM
IC50 [1]: 4 nM
Structure (SMILES): COC(=O)C1=C(C)N=C(C)/C(=C(/O)OC)C1c1cccc(N/C(=N/CCNC2CCN(c3ccccc3OC)CC2)NC#N)c1 (stereo unspecified)
Kb [2]: 9.4 nM

IC50 [1]: 3 nM
Structure (SMILES): COC(=O)C1=C(C)N=C(C)/C(=C(/O)OC)C1c1cccc(NC(=O)NCCNC2CCN(c3ccccc3C#N)CC2)c1 (stereo unspecified)

IC50 [1]: 6 nM
Structure (SMILES): COC(=O)C1=C(C)N=C(C)/C(=C(/O)OC)C1c1cccc(NC(=O)NCCNC2CCN(c3ccccc3O)CC2)c1 (stereo unspecified)

IC50 [1]: 14 nM
Structure (SMILES): COC(=O)C1=C(C)N=C(C)/C(=C(/O)OC)C1c1cccc(N/C(=N/CCNC2CCN(c3ccccc3C(F)(F)F)CC2)NC#N)c1 (stereo unspecified)

IC50 [1]: 8 nM
Structure (SMILES): COC(=O)C1=C(C)N=C(C)/C(=C(/O)OC)C1c1cccc(N/C(=N/CCNC2CCN(c3cccc(Cl)c3)CC2)NC#N)c1 (stereo unspecified)

IC50 [1]: 3 nM
Structure (SMILES): COC(=O)C1=C(C)N=C(C)/C(=C(/O)OC)C1c1cccc(N/C(=N/CCNC2CCN(c3ccccc3SC)CC2)NC#N)c1 (stereo unspecified)

IC50 [1]: 4 nM
Structure (SMILES): COC(=O)C1=C(C)N=C(C)/C(=C(/O)OC)C1c1cccc(N/C(=N/CCNC2CCN(c3ccccc3C)CC2)NC#N)c1 (stereo unspecified)

IC50 [1]: 10 nM
Structure (SMILES): COC(=O)C1=C(C)N=C(C)/C(=C(/O)OC)C1c1cccc(N/C(=N/CCNC2CCN(c3ccccc3)CC2)NC#N)c1 (stereo unspecified)

IC50 [1]: 3 nM
Structure (SMILES): COC(=O)C1=C(C)N=C(C)/C(=C(/O)OC)C1c1cccc(N/C(=N/CCNC2CCN(c3ccccc3C#N)CC2)NC#N)c1 (stereo unspecified)

IC50 [1]: 4 nM
Structure (SMILES): COC(=O)C1=C(C)N=C(C)/C(=C(/O)OC)C1c1cccc(N/C(=N/CCNC2CCN(c3ccccc3[N+](=O)[O-])CC2)NC#N)c1 (stereo unspecified)
